Test results: a melting point compilation (Tetko et al.; mined from patent text by program, amines drawn as free bases though some values may be those of a salt)

| Compound | melting point |
| --- | --- |
| CC(=O)c1c(C)nc(C)nc1NCc1ccc(-c2ccccc2-c2nnnn2C(C)(C)C)cc1 | 131 to 132 °C |
| CC(C)C[C@H](NC(=O)c1ccc2c(c1)Nc1ccccc1S2)C(=O)N[C@H]1CCOC1OC(=O)CC(C)(C)C (some centres not stated) | 111 to 113 °C |
| COCCc1nc2c(N)nc3cc(-c4ccccc4)ccc3c2n1CCCCNS(C)(=O)=O | 201 to 202 °C |
| C=Cc1ccc(-n2cnc([N+](=O)[O-])n2)c(C#N)c1 | 103 to 105 °C |
| O=C(NCCc1c[nH]c2ccc([N+](=O)[O-])cc12)C(F)(F)F | 200 to 201 °C |
| O=[N+]([O-])c1cnn2c1-c1ccccc1NC2c1ccccc1 (configuration not stated) | 157 to 158 °C |
| O=[N+]([O-])c1cccc(O)c1Cl | 130 °C |
| CN1CCC(OC2c3ccccc3CCn3cc(-c4ccccc4)nc32)CC1 (configuration not stated) | 113 °C |
| O=c1n(CCCF)nnn1-c1ccc(Cl)cc1F | 62 to 63 °C |
| Cc1c(C)c2c(c(C)c1OCc1ccccc1)C(c1ccc(C(C)C)cc1)C(C)(C)O2 (configuration not stated) | 79 to 81 °C |
| C/C=C/C(=O)NC(=O)OC(C)(C)C | 138 to 139 °C |
| CCCCNC(=O)Nc1ccc(-n2ccnc2)cc1C(=O)NCC1CCN(C(c2ccccc2)c2ccccc2)CC1 | 197 to 199 °C |
| O=C(O)CCCC=Cc1nn(-c2ccc(Cl)cc2)c2c1CCC2 | 132 to 134 °C |
| CCOC(=O)c1ccc(Cl)c(S(=O)(=O)Cl)c1 | 143 to 145 °C |
| CCN(CC)OP(=O)(Oc1ccccc1)Oc1ccccc1 | 51 to 53 °C |
| CCN(CC)c1ccc(/C=C/C(=O)CC(=O)/C=C/c2ccc3cc[nH]c3c2)c(OCc2ccccc2)c1 | 160 to 163 °C |
| CN1CCN(CCOc2cccc3c2c2cccc4c2n3C(c2ccccc2)CO4)CC1 (configuration not stated) | 57 °C |
| NC1=CN(N)NN=C1c1cccc(Cl)c1Cl | 216 to 218 °C |
| CCCc1nn(C)c(C(N)=O)c1N | 96 to 98 °C |
| C=C1C(=N)NC(=O)N1Cc1ccccc1 | 225 °C |
| COc1ccc(C2(C=O)CCC(=O)CC2)cc1OC1CCCC1 | 55 to 57 °C |
| COC(=O)c1ccc(C(=NO)c2ccc(C(=O)OC)cc2)cc1 | 177 to 178 °C |
| O=C1NCN(c2ccccc2)C12CCN(C[C@@H]1CCc3ccccc3[C@H]1O)CC2 (relative stereo) | 204 to 205 °C |
| COCc1cccc(OCCc2cnc(S)[nH]c2=O)c1 | 117 to 119 °C |
| COC(=O)c1cc(Cl)c2cccc(OC)c2n1 | 139 to 141 °C |
| CN(C(=O)C(=O)c1cn(Cc2ccc(Cl)cc2)c2ccccc12)C1=CC(=O)OC1 | 205 to 208 °C |

| Compound | melting point |
| --- | --- |
| O=C(NC(=O)c1ccco1)NC1CCN(Cc2ccc3ccccc3c2)CC1 | 157 to 159 °C |
| CC(C)(C)c1cc(C2=CCSCC2)c(O)c(C(C)(C)C)c1 | 115 to 119 °C |
| CCn1nc(C)cc1N | 95 to 96 °C |
| CCn1cc(C(=O)O)c(=O)c2cc(F)c(N3CC4CC3CN4)c(F)c21 (configuration not stated) | 233 to 236 °C |
| COC(=O)N[C@@H](Cc1ccccc1)[C@H](O)CN1C[C@H]2CCCC[C@H]2C[C@H]1C(=O)NOC(C)(C)C | 194 to 195 °C |
| Cc1cc(Oc2ccc(NC(=O)N3CCc4ccccc4CC3)cn2)cc(C)c1Cl | 208 to 209 °C |
| NC(=O)c1ccc(C(=O)Nc2ccc(-n3nc(C(F)(F)F)cc3C(F)(F)F)cc2)cc1 | 290 to 291 °C |
| O=C(CCl)c1csc(C(=O)CCl)c1 | 154 to 155 °C |
| Cc1c(C)n(CC(F)F)c2c(OCc3ccccc3)nncc12 | 128 to 131 °C |
| CCCSc1sc(C(=O)O)c2c1-c1c(cnn1C)CC2 | 216 to 217 °C |
| N#Cc1ccc(N2C(=O)NC3(CCOCC3)C2=O)cc1C(F)(F)F | 192 to 193 °C |
| CSC1C(=O)Nc2ccc(Oc3ccc(Cl)cc3)cc21 (configuration not stated) | 166 to 169 °C |
| CC[C@H](COC)n1cc(Cl)nc(N2CCc3cc(Cl)cc(Cl)c32)c1=O | 143 to 146 °C |
| CC(C)S(=O)(=O)c1cc(C#N)c(N)c(OCCc2ccccn2)c1 | 122 to 123 °C |
| CCC12CCC3C4CCC(=O)C=C4CC(C)C3C1CCC2O (configuration not stated) | 152 to 154 °C |
| COC(=O)c1ccc(CC(=O)Nc2cccc(/C=C/c3nc(C4CCC4)cs3)c2)cc1 | 163 to 164 °C |
| CNc1nc(C)c(-c2nc3ccccc3c(=O)n2-c2ccc(C(C)=O)cc2)s1 | 245 to 246 °C |
| CC(C)(C)C(=O)C(Oc1cccc(Cl)n1)n1cncn1 (configuration not stated) | 103 to 105 °C |
| O=C1NC(=S)SC1=Cc1ccc2c(c1)N(OCc1ccccc1)C(=O)CO2 | > 300 °C |
| NC(=O)c1ncn2c1[C@@H]1CCCN1C(=O)c1cc(F)ccc1-2 | 239 to 240 °C |
| CCOC(=O)C(C)Oc1ccc(Oc2nnc3cc(Br)ccc3n2)cc1 (configuration not stated) | 104 °C |
| CC(=O)N(C(C)=O)n1c(=O)[nH]c2ccccc2c1=O | 210 °C |
| O=C(c1ccccc1)c1ccccc1C#CCN1C(=O)c2ccccc2C1=O | 164 to 165 °C |
| COC(=O)CCCc1cc2cc(Cl)ccc2n1S(=O)(=O)c1ccc2nsnc2c1 | 103 to 106 °C |
| CCCc1nn(C)c2c(=O)n(CCCOc3ccc(OC(C)(C)C(=O)O)cc3)c(C)nc12 | 158 to 160 °C |
| CC(=O)N[C@H]1CC[C@H](CCN2CCN(c3ncc(C)c4c3CCO4)CC2)CC1 | 196 °C |

| Compound | melting point |
| --- | --- |
| CC1(C(=O)c2c[nH]c3ncc(-c4ccc(N5CCCCC5)cc4)nc23)CCCCC1 | 234 to 236 °C |
| O=C(C1CCN(c2ccncc2)CC1)N1CCC(Oc2ccc(Br)cc2)CC1 | 127 to 130 °C |
| Cc1nc(N2CCN(CCC3CC3)C2=O)sc1C(=O)NCc1cccnc1 | 146 to 147 °C |
| CCc1ncc2c3c(ccc2n1)OCC(CN1CC=C(c2c[nH]c4ccccc24)CC1)O3 (configuration not stated) | 203 to 211 °C |
| COc1cccc(S(=O)(=O)c2ccc3[nH]c(C)c(CCNC(=O)OC(C)(C)C)c3c2)c1 | 170 to 173 °C |
| CSc1nc(C)ccc1NC(=O)CCCCCCCCBr | 80 to 82 °C |
| CC(C)n1c(=O)n(C)c(=O)c2cn(C3Cc4ccccc4C3)cc21 | 158 to 160 °C |
| CN1CCC(c2ccc(F)cc2)(C(C)(C)O)CC1 | 165 to 166 °C |
| Brc1cc2nc(NC3=NCCN3)[nH]c2cc1Br | 261 to 267 °C |
| COC1=C(OC)C(=O)C2=C(CCC(CCOc3ccc(OC)cc3)CC2)C1=O | 76 to 77 °C |
| CC(=O)C(C(=O)Nc1ccccc1)C(C)C (configuration not stated) | 135 to 137 °C |
| O=C(NC(=NCCCc1c[nH]cn1)NCC(O)COc1ccccc1)c1ccccc1 (configuration not stated) | 129 °C |
| COc1cccc2c1nc(C(F)F)n2-c1nc(Nc2ccc(N)nc2)nc(N2CCOCC2)n1 | 267 to 270 °C |
| CCCCCCCCCCCC1OC1CO (configuration not stated) | 68 to 70 °C |
| c1ccc2c(c1)C[C@H]1CSC(=Nc3csc4cnccc34)N1C2 | 180 °C |
| Cc1n[nH]c(C)c1-c1cncc(OC2SCC(O)C(O)C2O)c1 (configuration not stated) | 227 °C |
| CC(C)CC(C(=O)O)c1cc(OCC2CC2)c(-c2ccc3nonc3c2)cc1F (configuration not stated) | 110 to 111 °C |
| Cn1ccnc1Sc1ccc(Cl)cc1N | 127 to 129 °C |
| COc1ccc2cccc(Cl)c2c1 | 32 to 34 °C |
| COc1ccc(NN=C(Sc2ccc(C)cc2C)C(C)=O)cc1 | 109 to 111 °C |
| CCCNc1ccc(C(=O)N2CCCC(CC(=O)NC(C)C)c3ccccc32)c(Cl)c1 (configuration not stated) | 140 to 143 °C |
| COc1ccc2c(=O)[nH]nc(-c3ccccc3)c2c1 | 230 to 235 °C |
| CCCC1=C(C#N)C(c2ccccc2OC)c2c[nH]nc2N1 (configuration not stated) | 203 °C |
| CC(C)(C)OC(=O)N1CCN(c2ccc(OCC3(C)Cn4cc([N+](=O)[O-])nc4O3)cc2)CC1 (configuration not stated) | 212 to 214 °C |
| CC(C)N1CC(C(C(N)=O)(c2ccccc2)c2ccccn2)C1 (configuration not stated) | 140 to 141 °C |
| C1=CNc2ccccc2C=N1 | 165 to 167 °C |

| Compound | melting point |
| --- | --- |
| N#Cc1cccc(C2=Nc3ccc(C4CC4)cc3NC(=O)C2)c1 | 204 to 209 °C |
| O=Cc1nc(-c2ccccc2)c(-c2ccccc2)n1Cc1ccccc1 | 146 to 147 °C |
| CC(=O)N1C(=O)C2(COc3cc4c(cc32)OCCO4)c2ccccc21 (configuration not stated) | 236 to 238 °C |
| Cc1ccc(C(C=O)=CN(C)C)c([N+](=O)[O-])c1 | 117 to 119 °C |
| NNC(=O)CCCCC(=O)N(NC(=O)c1ccccc1O)C(=O)c1ccccc1O | 252 °C |
| c1ccc(Nc2csc(-c3cn[nH]c3)n2)nc1 | 209 to 210 °C |
| CC(C)Oc1ccc(Oc2ccc3c(c2)c(C(=O)O)c(CC(=O)O)n3-c2cccc(Cl)c2)cc1 | 188 to 190 °C |
| Cc1ccc(C)n1-c1cc(Br)c2ccc3[nH]c(=O)c(=O)[nH]c3c2c1 | > 270 °C |
| Cc1coc(C)c1C(=O)OC1CC(C)(C)N(CC#N)C(C)(C)C1 | 156 °C |
| COc1cccc(SCCF)c1S(N)(=O)=O | 127 °C |
| C#Cc1c(-c2ccc(F)cc2)nn(-c2ccccc2)c1C(C)C | 117 to 118 °C |
| Cc1ccc(Oc2cc(-c3ccc(Br)cc3)oc2-c2ccc(Br)cc2)cc1 | 92 to 93 °C |
| CC(=O)c1cc2c(s1)CCC1CC(=O)N(c3ccc(Cl)cc3)N=C21 (configuration not stated) | 155 to 157 °C |
| COC(=O)C1=Cc2cc(-c3ccc(N4CCCCC4)cc3)ccc2S(=O)(=O)CC1 | 202 to 204 °C |
| CCOC(=O)CC(NC(=O)c1ccc(Cl)cc1)C(=O)C(C)C (configuration not stated) | 42 to 44 °C |
| FC(F)(F)c1nc2ccc(Cn3ccnc3)cc2n1CC1CCCCC1 | 165 °C |
| Clc1ccc2c(c1)CCc1cccnc1C2=C1CCN(Cc2ccc(Cl)nc2)CC1 | 76.2 to 81.7 °C |
| CC1=C(c2cccc(C(F)(F)F)c2)n2ncc(C(N)=O)c2NC1 | 200 to 202 °C |
| c1ccc2c(c1)Cn1ncnc1-2 | 116 to 117 °C |
| O=C(O)c1cccc(OCc2csc(-c3ccccc3)n2)c1 | 155 to 157 °C |
| Cn1cc(Oc2ccc(Cl)cc2)c(=O)c(-c2cccc(C(F)(F)F)c2)c1 | 90 to 91 °C |
| CON1CCC2(CC1)C(OCc1ccccc1)=C(c1c(C)cc(C)cc1C)C(=O)N2CC1CC1 | 119 to 121 °C |
| O=C(NC1CCS(=O)(=O)CC1)NC12CC3CC(CC(C3)C1)C2 | 244 to 246 °C |
| COc1cc2c(c3c1C1CCC3CC1)OC(COS(=O)(=O)c1ccc(C)cc1)C2 (configuration not stated) | 136 to 141 °C |
